According to PubChem BioAssay (NCI):
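Test compounds were applied to cells in 96-well plates for 48 hours at 5 doses. The concentration for 50% growth inhibition is given as GI50. TGI denotes the concentration required for complete inhibition of growth.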

Legend:
Assay in all cases: NCI anticancer screen, dose series, 48 h
ACHN renal = system: ACHN renal
IGROV1 ovarian = system: IGROV1 ovarian
KM12 colon = system: KM12 colon
MALME-3M melanoma = system: MALME-3M melanoma
MDA-MB-231 breast = system: MDA-MB-231 breast
NCI-H23 lung = system: NCI-H23 lung
RPMI-8226 leukemia = system: RPMI-8226 leukemia
SK-MEL-28 melanoma = system: SK-MEL-28 melanoma
SW-620 colon = system: SW-620 colon
U251 CNS = system: U251 CNS

Row | SMILES | GI50 (ACHN renal) [µM] | TGI (ACHN renal) [µM] | GI50 (IGROV1 ovarian) [µM] | TGI (IGROV1 ovarian) [µM] | GI50 (KM12 colon) [µM] | TGI (KM12 colon) [µM] | GI50 (MALME-3M melanoma) [µM] | TGI (MALME-3M melanoma) [µM] | GI50 (MDA-MB-231 breast) [µM] | TGI (MDA-MB-231 breast) [µM] | GI50 (NCI-H23 lung) [µM] | TGI (NCI-H23 lung) [µM] | GI50 (RPMI-8226 leukemia) [µM] | TGI (RPMI-8226 leukemia) [µM] | GI50 (SK-MEL-28 melanoma) [µM] | TGI (SK-MEL-28 melanoma) [µM] | GI50 (SW-620 colon) [µM] | TGI (SW-620 colon) [µM] | GI50 (U251 CNS) [µM] | TGI (U251 CNS) [µM]
1 | Nc1ccccc1C#C/C=C\C#Cc1ccc(Cl)cc1Cl | 20.9 | 41.7 | 14.8 | 38.7 | 2.72 | 14.4 | 1.87 | 17.2 | 15.8 | 35.6 | 14.2 | 31.5 | 0.89 | 30.5 | 27 | > 100 | 34.8 | > 100 | 15.3 | 34
2 | Cc1[nH]c(/C=C2\C(=O)Nc3ccc(F)cc32)c(C)c1C(=O)NC[C@H](O)CN1CCOCC1 | 3.49 | > 10 | 2.73 | > 10 | 0.0691 | > 10 | 4.21 | > 10 | 4.25 | > 10 | 2.41 | > 10 | 3.54 | > 10 | 4.16 | > 10 | 2.3 | > 10 | 6.65 | > 10
3 | CCN(CC)CCOc1ccc(/C=C2\CC3C4CC=C5C[C@@H](N6CCCC6)CC[C@]5(C)C4CC[C@]3(C)[C@H]2O)cc1OC (stereo not given in full) | 5.94 | 26.2 | 8.91 | > 27.6 | 2.67 | 11.9 | 3.68 | 9.82 | 2.96 | 7.58 | 8.87 | 25.1 | 2.24 | 6.34 | 20.5 | > 65.7 | 0.624 | 7.38 | 3.08 | 20.5
4 | O=[N+]([O-])/C=C/c1c[nH]c2ccccc12 | 17.1 | 32.3 | 13.3 | 27.6 | 14.6 | 31 | 19 | 35.7 | 15.2 | 30.7 | 15 | 31 | 1.83 | 7.7 | 17.4 | 32.5 | 15.2 | 57.5 | 12.8 | 26.7
5 | C=C1C(=O)OC2CC3(CO3)C3C(O)C(O)CC3(C)CC12 (stereo not given) |  | 35.5 |  | > 100 |  | > 100 |  | 37.5 |  | 60.5 |  | 47.9 |  | > 100 |  | 34.8 |  | 32.3 |  | > 100
6 | COc1cc(/C=C/C(=O)c2ccc(Cl)cc2)ccc1OS(=O)(=O)c1ccc(C)cc1 | 9.68 | 22.2 | 14.5 | 41.7 | 3.63 | 13.8 | 13.1 | 33.6 | 9.02 | 28 | 13.3 | 43.6 | 2.1 | 4.77 | 18.3 | 47.5 | 2.21 | 6.01 | 2.18 | 5.38
7 | O=C(Nc1ncc(Cc2ccccc2Cl)s1)c1ccc2c(c1)OCCO2 | 0.776 | > 65.1 | 0.498 | > 57.8 | 0.322 | > 35.6 | 0.68 | > 47.1 | 0.38 | 8.76 | 0.625 | > 100 | 0.479 | > 100 | 1.66 | > 59 | 0.358 | > 100 | 0.4 | > 51.6
8 | O=C1c2ccccc2-c2c1c1ccccc1c(=O)n2CCCN1CCOCC1 | 10.7 | 59.5 | 8.36 | > 50.1 | > 100 | > 100 | 9.43 | 45.1 | 12 | 34.1 | 15.4 | 41.5 | > 44.4 | > 100 | > 100 | > 100 | 20.2 | > 100 | 3.67 | 14.9
9 | O=C(NC(=S)Nc1ccc(Cl)cc1)c1ccccc1 | > 100 | > 100 | > 87.7 | > 100 | > 100 | > 100 | > 100 | > 100 | > 51.6 | > 100 | > 100 | > 100 | > 100 | > 100 | > 100 | > 100 | > 100 | > 100 | > 77.2 | > 100
10 | C=C1C(=O)O[C@H]2[C@H]1CC/C(Cn1cc(-c3ccccc3)nn1)=C\CC[C@@]1(C)O[C@@H]21 | 0.941 | 2.46 | 6.95 | 14.9 | 8.48 | 18.7 | 1.17 | 2.84 | 2 | 7.89 | 5.38 | 12.4 | 1.71 | 11.1 | 1.06 | 2.48 | 1.5 | 6.43 | 7.96 | 15.4
11 | O=C1OC(=O)C2C1C1(c3ccccc3)C(c3ccccc3)=C(c3ccccc3)C2(c2ccccc2)S1=O (stereo not given) | > 100 | > 100 | > 100 | > 100 | > 100 | > 100 | > 100 | > 100 | > 100 | > 100 | > 100 | > 100 | 53.1 | > 100 | > 100 | > 100 | > 100 | > 100 | > 100 | > 100
12 | CC(=O)OC(C)(C)/C=C/C(=O)[C@](C)(O)[C@H]1[C@H](O)C[C@@]2(C)[C@@H]3CC=C4[C@@H](C[C@H](O)C(=O)C4(C)C)[C@]3(C)C(=O)C[C@]12C |  | < 0.03 |  | < 0.0132 |  | 13.6 |  | 1.55 |  | < 0.01 |  | 4.07 |  | < 0.01 |  | < 0.01 |  | 7.54 |  | < 0.01
